Laboratory results: patent US20260356841A1, “HETEROCYCLIC PYRIDINONE COMPOUNDS AS TRIGGERING RECEPTOR EXPRESSED ON MYELOID CELLS 2 AGONISTS AND METHODS OF USE” (Vigil Neuroscience, Inc., priority 2023, published 2026)

Target: T1, human TREM2 (Homo sapiens, UniProt Q9NZC2)
T1 construct: expressed in transfected cells; host or cells: HEK293T (HEK293T-hTREM2 cells)
Experiment: TREM2 agonist potency by cellular phosphorylation of Spleen Tyrosine Kinase (Syk), AlphaLisa, HEK293T-hTREM2 cells
Assay type: cell-based
Conditions: not given
Method in brief: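 HEK293T cells co-expressing human TREM2 and DAP12, plated 20–24 h before use. Compounds applied 45 min at room temperature in assay buffer, then cells lysed and phospho-Syk quantified by AlphaLisa. Percent activation from a standard curve; EC50 from a four-parameter variable-slope fit.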

T1 sequence (Q9NZC2 19-230): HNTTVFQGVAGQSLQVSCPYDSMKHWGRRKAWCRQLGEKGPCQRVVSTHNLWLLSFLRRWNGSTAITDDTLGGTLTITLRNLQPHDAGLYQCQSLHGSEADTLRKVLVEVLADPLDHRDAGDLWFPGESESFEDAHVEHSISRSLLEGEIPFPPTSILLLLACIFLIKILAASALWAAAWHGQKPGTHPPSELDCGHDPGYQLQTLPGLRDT
T1 sequence (O43914 22-113 partner): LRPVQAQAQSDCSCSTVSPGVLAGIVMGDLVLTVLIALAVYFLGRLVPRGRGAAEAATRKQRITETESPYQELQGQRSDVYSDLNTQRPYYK

Row | EC50 | SMILES
1 | < 100 nM | Cc1nc2nc(N3C[C@@H](C)O[C@@H](c4ccc(=O)n(C)c4)C3)nc(C34CC(C(F)(F)F)(C3)C4)c2nc1C(F)F [Example 180, 5-[(2S,6R)-4-[6-(difluoromethyl)-7-methyl-4-[3-(trifluoromethyl)-1-bicyclo[1.1.1]pentanyl]pteridin-2-yl]-6-methyl-morpholin-2-yl]-1-methyl-pyridin-2-one]
2 | < 100 nM | Cc1nc2cc(N3C[C@@H](C)O[C@@H](c4ccc(=O)n(C)c4)C3)nc(-c3ccc(F)cc3F)c2nc1C [Example 191, 5-((2S,6R)-4-(5-(2,4-difluorophenyl)-2,3-dimethylpyrido[3,4-b]pyrazin-7-yl)-6-methylmorpholin-2-yl)-1-methylpyridin-2 (1H)-one]
3 | < 100 nM | Cc1cc2c(-c3ccc(F)cc3F)nc(N3C[C@@H](C)O[C@@H](c4ccc(=O)n(C)c4)C3)cc2nc1C [Example 196, 5-((2S,6R)-4-(5-(2,4-difluorophenyl)-2,3-dimethyl-1,6-naphthyridin-7-yl)-6-methylmorpholin-2-yl)-1-methylpyridin-2 (1H)-one]

Same assay, conditions: hTREM2 EC50 Data (HEK293 Cells); Syk phosphorylation, AlphaLisa; read-out: hTREM2 EC50

Row | SMILES | EC50
4 | Cc1nc2nc([C@H]3CCO[C@H](c4cnc(=O)n(C)c4)C3)nc(C34CC(C(F)(F)F)(C3)C4)c2nc1C [Example 163, 1-methyl-5-[(2S,4S)-4-[6,7-dimethyl-4-[3-(trifluoromethyl)-1-bicyclo[1.1.1]pentanyl]pteridin-2-yl]tetrahydropyran-2-yl]pyrimidin-2-one] | < 100 nM
5 | C[C@@H]1CN(c2nc(-c3ccc(F)cc3F)c3sc(N(C)C)nc3n2)C[C@H](c2ccc(=O)[nH]c2)O1 [Example 173, 5-[(2S,6R)-4-[7-(2,4-difluorophenyl)-2-(dimethylamino)thiazolo[4,5-d]pyrimidin-5-yl]-6-methyl-morpholin-2-yl]-1H-pyridin-2-one] | < 100 nM
6 | C[C@@H]1CN(c2nc(-c3ccc(F)cc3F)c3sc(N(C)C)nc3n2)C[C@H](c2ccc(=O)n(N)c2)O1 [Example 174, 1-amino-5-[(2S,6R)-4-[7-(2,4-difluorophenyl)-2-(dimethylamino)thiazolo[4,5-d]pyrimidin-5-yl]-6-methyl-morpholin-2-yl]pyridin-2-one] | < 100 nM
7 | CNn1cc([C@H]2CN(c3nc(-c4ccc(F)cc4F)c4sc(N(C)C)nc4n3)C[C@@H](C)O2)ccc1=O [Example 175, 5-[(2S,6R)-4-[7-(2,4-difluorophenyl)-2-(dimethylamino)thiazolo[4,5-d]pyrimidin-5-yl]-6-methyl-morpholin-2-yl]-1-(methylamino)pyridin-2-one] | < 100 nM
8 | C[C@@H]1CN(c2nc(-c3ccc(F)cc3F)c3sc(N(C)C)nc3n2)C[C@H](c2ccc(=O)n(C)c2)O1 [Example 176, 5-[(2S,6R)-4-[7-(2,4-difluorophenyl)-2-(dimethylamino)thiazolo[4,5-d]pyrimidin-5-yl]-6-methyl-morpholin-2-yl]-1-methyl-pyridin-2-one] | < 100 nM
9 | Cc1nc2nc([C@H]3CCO[C@@H](c4ccc(=O)n(N(C)C)c4)C3)nc(C34CC(C(F)(F)F)(C3)C4)c2nc1C [Example 178, 1-(dimethylamino)-5-[(2R,4S)-4-[6,7-dimethyl-4-[3-(trifluoromethyl)-1-bicyclo[1.1.1]pentanyl]pteridin-2-yl]tetrahydropyran-2-yl]pyridin-2-one] | < 100 nM
10 | CCNn1cc([C@H]2C[C@@H](c3nc(C45CC(C(F)(F)F)(C4)C5)c4nc(C)c(C)nc4n3)CCO2)ccc1=O [Example 181, 5-[(2R,4S)-4-[6,7-dimethyl-4-[3-(trifluoromethyl)-1-bicyclo[1.1.1]pentanyl]pteridin-2-yl]tetrahydropyran-2-yl]-1-(ethylamino)pyridin-2-one] | < 100 nM
11 | Cc1nc2cc(N3C[C@@H](C)O[C@@H](c4ccc(=O)[nH]c4)C3)nc(-c3ccc(F)cc3F)c2nc1C [Example 186, 5-((2S,6R)-4-(5-(2,4-difluorophenyl)-2,3-dimethylpyrido[3,4-b]pyrazin-7-yl)-6-methylmorpholin-2-yl)pyridin-2(1H)-one] | 100 to 500 nM
12 | Cc1cnc2c(C34CC(C(F)(F)F)(C3)C4)nc([C@H]3CCO[C@@H](c4ccc(=O)[nH]c4)C3)nc2n1 [Example 187, 5-((2R,4S)-4-(7-methyl-4-(3-(trifluoromethyl)bicyclo[1.1.1]pentan-1-yl)pteridin-2-yl)tetrahydro-2H-pyran-2-yl)pyridin-2(1H)-one] | 100 to 500 nM
13 | CN(C)c1nc2c(C34CC(C(F)(F)F)(C3)C4)nc([C@H]3CCO[C@@H](c4ccc(=O)n(C)c4)C3)nc2n1C [Example 188] | > 500 nM
14 | Cc1nc2nc(N3CCC(F)(F)C(c4ccc(=O)[nH]c4)C3)nc(-c3ccc(F)cc3F)c2nc1C (stereo not shown) [Example 189, 5-[1-[4-(2,4-difluorophenyl)-6,7-dimethyl-pteridin-2-yl]-4,4-difluoro-3-piperidyl]-1H-pyridin-2-one] | < 100 nM
15 | Cc1nc2nc(N3CCC(F)(F)C(c4ccc(=O)n(C)c4)C3)nc(-c3ccc(F)cc3F)c2nc1C (stereo not shown) [Example 190, 5-[1-[4-(2,4-difluorophenyl)-6,7-dimethyl-pteridin-2-yl]-4,4-difluoro-3-piperidyl]-1-methyl-pyridin-2-one] | < 100 nM
16 | Cc1cc2c(-c3ccc(F)cc3F)nc(N3C[C@@H](C)O[C@@H](c4ccc(=O)[nH]c4)C3)cc2nc1C [Example 192, 5-((2S,6R)-4-(5-(2,4-difluorophenyl)-2,3-dimethyl-1,6-naphthyridin-7-yl)-6-methylmorpholin-2-yl)pyridin-2(1H)-one] | 100 to 500 nM
17 | Cc1cc2c(-c3ccc(F)cc3F)nc(N3C[C@@H](C)O[C@@H](c4ccc(=O)n(N)c4)C3)cc2nc1C [Example 193, 1-amino-5-[(2S,6R)-4-[5-(2,4-difluorophenyl)-2,3-dimethyl-1,6-naphthyridin-7-yl]-6-methyl-morpholin-2-yl]pyridin-2-one] | < 100 nM
18 | Cc1nc2cc(C3CCO[C@@H](c4ccc(=O)n(C)c4)C3)nc(-c3ccc(F)cc3F)c2nc1C (stereo partly shown) [Example 194, 5-(4-(5-(2,4-difluorophenyl)-2,3-dimethylpyrido[3,4-b]pyrazin-7-yl)tetrahydro-2H-pyran-2-yl)-1-methylpyridin-2 (1H)-one] | 100 to 500 nM

More lines, now with the values ahead:

Row | EC50 | SMILES
19 | < 100 nM | Cc1nc2nc([C@H]3CCO[C@@H](c4ccc(=O)n(C)c4)C3)cc(C34CC(C(F)(F)F)(C3)C4)c2nc1C [Example 167, 1-methyl-5-[(2R,4S)-4-[2,3-dimethyl-8-[3-(trifluoromethyl)-1-bicyclo[1.1.1]pentanyl]pyrido[2,3-b]pyrazin-6-yl]tetrahydropyran-2-yl]pyridin-2-one]
20 | < 100 nM | Cc1nc2nc([C@@H]3CCO[C@H](c4ccc(=O)n(C)c4)C3)cc(C34CC(C(F)(F)F)(C3)C4)c2nc1C [Example 168, 1-methyl-5-[(2S,4R)-4-[2,3-dimethyl-8-[3-(trifluoromethyl)-1-bicyclo[1.1.1]pentanyl]pyrido[2,3-b]pyrazin-6-yl]tetrahydropyran-2-yl]pyridin-2-one]
21 | < 100 nM | Cc1nc2nc([C@@H]3CCO[C@@H](c4ccc(=O)n(C)c4)C3)cc(C34CC(C(F)(F)F)(C3)C4)c2nc1C [Example 169, 1-methyl-5-[(2R,4R)-4-[2,3-dimethyl-8-[3-(trifluoromethyl)-1-bicyclo-[1.1.1]pentanyl]pyrido[2,3-b]pyrazin-6-yl]tetrahydropyran-2-yl]pyridin-2-one]
22 | 100 to 500 nM | Cc1nc2nc([C@H]3CCO[C@H](c4ccc(=O)n(C)c4)C3)cc(C34CC(C(F)(F)F)(C3)C4)c2nc1C [Example 170, 1-methyl-5-[(2S,4S)-4-[2,3-dimethyl-8-[3-(trifluoromethyl)-1-bicyclo[1.1.1]pentanyl]pyrido[2,3-b]pyrazin-6-yl]tetrahydropyran-2-yl]pyridin-2-one]
23 | < 100 nM | CNn1cc([C@H]2C[C@@H](c3nc(C45CC(C(F)(F)F)(C4)C5)c4nc(C)c(C)nc4n3)CCO2)ccc1=O [Example 179, 5-[(2R,4S)-4-[6,7-dimethyl-4-[3-(trifluoromethyl)-1-bicyclo[1.1.1]pentanyl]pteridin-2-yl]tetrahydropyran-2-yl]-1-(methylamino)pyridin-2-one]
24 | < 100 nM | [2H]C([2H])([2H])c1nc2nc(N3C[C@@H](C)O[C@@H](c4ccc(=O)n(C5CC5)c4)C3)nc(C34CC(C(F)(F)F)(C3)C4)c2nc1C([2H])([2H])[2H] [Example 182, 5-[(2S,6R)-4-[6,7-bis(methyl-d3)-4-[3-(trifluoromethyl)-1-bicyclo[1.1.1]pentan-1-yl]pteridin-2-yl]-6-methyl-morpholin-2-yl]-1-cyclopropylpyridin-2(1H)-one]
25 | < 100 nM | Cc1nc2nc(N3C[C@@H](C)O[C@@H](c4ccc(=O)n(C5CC5)c4)C3)nc(C34CC(C(F)(F)F)(C3)C4)c2nc1C1COC1 [Example 183, 1-cyclopropyl-5-((2S,6R)-6-methyl-4-(7-methyl-6-(oxetan-3-yl)-4-(3-(trifluoromethyl)bicyclo[1.1.1]pentan-1-yl)pteridin-2-yl)morpholin-2-yl)pyridin-2(1H)-one]
26 | < 100 nM | Cc1nc2nc(N3C[C@@H](C)O[C@@H](c4ccc(=O)n(N)c4)C3)nc(C34CC(C(F)(F)F)(C3)C4)c2nc1C [Example 184, 1-amino-5-[(2S,6R)-4-[6,7-dimethyl-4-[3-(trifluoromethyl)-1-bicyclo[1.1.1]pentanyl]pteridin-2-yl]-6-methyl-morpholin-2-yl]pyridin-2-one]
27 | 100 to 500 nM | Cc1nc2nc(N3C[C@@H](C)O[C@@H](c4ccc(=O)n(N)c4)C3)nc(C34CC(C(F)(F)F)(C3)C4)c2nc1C1COC1 [Example 185, 1-amino-5-[(2S,6R)-6-methyl-4-[7-methyl-6-(oxetan-3-yl)-4-[3-(trifluoromethyl)-1-bicyclo[1.1.1]pentanyl]pteridin-2-yl]morpholin-2-yl]pyridin-2-one]
28 | < 100 nM | Cc1nc2nc(N3C[C@@H](C)O[C@@H](c4ccc(=O)[nH]c4)C3)nc(C34CC(C(F)(F)F)(C3)C4)c2nc1C1COC1 [Example 195, 5-[(2S,6R)-6-methyl-4-[7-methyl-6-(oxetan-3-yl)-4-[3-(trifluoromethyl)-1-bicyclo[1.1.1]pentanyl]pteridin-2-yl]morpholin-2-yl]-1H-pyridin-2-one]
